Among the data in PMC6009942, “Synthesis and molecular docking studies of some 4-phthalimidobenzenesulfonamide derivatives as acetylcholinesterase and butyrylcholinesterase inhibitors” (Journal of Enzyme Inhibition and Medicinal Chemistry, 2016) are IC50 values, retold here.

In assay [1] the target is T1, BuChE (E.C.3.1.1.8., from equine serum) (Equus caballus, UniProt P81908).
T1 construct: BuChE (E.C.3.1.1.8., from equine serum); purchased Sigma-Aldrich (Steinheim, Germany); host or cells: equine serum
Nature of the assay: BuChE inhibition, modified Ellman colorimetric method. To be noted: pH 8.0, 5-min incubation, mean ± SEM of triplicate independent experiments. It is filed as biochemical. The source says:
(§1) AChE (E.C.3.1.1.7., Type VI-S, from electric eel) and BuChE (E.C.3.1.1.8., from equine serum) were purchased from Sigma-Aldrich (Steinheim, Germany). 5,5′-Dithiobis(2-nitrobenzoic acid) (DTNB, Ellman’s reagent) acetylthiocholine iodide (AChI) and butyrylthiocholine iodide (BChI) used as substrates were obtained from Fluka. Buffer compounds (potassium dihydrogen phosphate, potassium hydroxide) and sodium hydrogen carbonate were purchased from Merck (Darmstadt, Germany). Spectrophotometric measurements were performed on a Shimadzu 160-A UV-Vis spectrophotometer.
(§2) The inhibitory effects of the synthesized compounds on AChE and BuChE were evaluated using a slightly modified colorimetric method of Ellman et al., with galantamine as the reference compound[41–45]. Prior to use, all solutions were adjusted to 20 °C. Enzyme solution (100 μL) and inhibitor solution (100 μL) were added into a cuvette containing the phosphate buffer (3.0 mL, 0.1 M; pH 8.0). After 5-min incubation, required aliquots of the DTNB solution (100 μL) and of the AChI/BChI (20 μL) were added. After rapid and immediate mixing, the absorption was measured at 412 nm by UV spectroscopy. As a reference, an identical solution of the enzyme without the inhibitor is processed following the same protocol. The blank reading contained 3.0 mL buffer, 200 μL water, 100 μL DTNB and 20 μL substrate. The enzyme activity was determined in the presence of at least five different concentrations of an inhibitor. Each concentration was assayed in triplicate. The samples were investigated immediately after preparation.
(§3) Inhibitory activities of the synthesized compounds against AChE and BuChE were evaluated by modified Ellman method, using galantamine as the reference compound[41–45]. The AChE inhibitory activity was determined by using electric eel acetylcholinesterase and the BuChE inhibitory activity was tested by using equine serum butyrylcholinesterase.

In assay [2] the target is T2, AChE (E.C.3.1.1.7., Type VI-S, from electric eel) (Electrophorus electricus, UniProt O42275).
T2 construct: purchased Sigma-Aldrich (Steinheim, Germany) Type VI-S
Nature of the assay: AChE inhibition, modified Ellman colorimetric method. The format is biochemical. To be noted: pH 8.0, 5-min incubation, mean ± SEM of triplicate independent experiments.
Description: as §1, §2, §3
(Ellman's reagent forms a yellow product with free thiols.)

T1 sequence (P81908 whole entry): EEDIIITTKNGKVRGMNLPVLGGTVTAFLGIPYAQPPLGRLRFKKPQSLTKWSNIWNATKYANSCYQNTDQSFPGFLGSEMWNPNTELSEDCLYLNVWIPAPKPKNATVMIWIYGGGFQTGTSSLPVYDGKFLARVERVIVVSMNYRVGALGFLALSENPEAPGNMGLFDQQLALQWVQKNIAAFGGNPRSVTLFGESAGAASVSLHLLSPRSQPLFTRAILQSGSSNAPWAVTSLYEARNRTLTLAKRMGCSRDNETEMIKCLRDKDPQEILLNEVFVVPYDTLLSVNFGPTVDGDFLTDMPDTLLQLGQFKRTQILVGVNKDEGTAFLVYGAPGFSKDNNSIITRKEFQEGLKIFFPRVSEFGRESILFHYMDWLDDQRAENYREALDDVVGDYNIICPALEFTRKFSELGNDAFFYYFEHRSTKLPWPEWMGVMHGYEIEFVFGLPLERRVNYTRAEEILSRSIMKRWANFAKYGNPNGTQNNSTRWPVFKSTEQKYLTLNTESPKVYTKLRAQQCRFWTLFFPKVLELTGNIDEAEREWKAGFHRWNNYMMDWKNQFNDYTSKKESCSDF
T2 sequence (O42275 24-633): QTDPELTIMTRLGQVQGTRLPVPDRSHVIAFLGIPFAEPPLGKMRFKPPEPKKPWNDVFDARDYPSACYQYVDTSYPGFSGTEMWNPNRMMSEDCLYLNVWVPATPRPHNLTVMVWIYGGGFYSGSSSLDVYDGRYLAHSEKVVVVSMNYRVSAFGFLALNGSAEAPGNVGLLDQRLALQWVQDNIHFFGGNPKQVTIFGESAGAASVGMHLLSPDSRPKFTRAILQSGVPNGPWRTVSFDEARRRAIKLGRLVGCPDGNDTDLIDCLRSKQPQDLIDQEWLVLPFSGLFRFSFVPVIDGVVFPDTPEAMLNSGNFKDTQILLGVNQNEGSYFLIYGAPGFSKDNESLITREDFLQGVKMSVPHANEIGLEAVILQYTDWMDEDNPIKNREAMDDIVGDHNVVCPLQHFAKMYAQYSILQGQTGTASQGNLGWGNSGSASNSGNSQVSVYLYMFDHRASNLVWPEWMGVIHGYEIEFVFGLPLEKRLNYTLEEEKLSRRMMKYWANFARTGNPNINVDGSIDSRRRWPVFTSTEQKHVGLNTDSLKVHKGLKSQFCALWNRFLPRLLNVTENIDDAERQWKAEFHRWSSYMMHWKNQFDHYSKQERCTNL

Broadly, the IC50 is the point on the concentration scale where inhibition reaches its midpoint. Low values mean greater potency, high ones weaker potency. For `CC1CCCCN1S(=O)(=O)c1ccc(N2C(=O)c3ccccc3C2=O)cc1` (stereo not shown) [Compound 10, 2-(4-((2-Methylpiperidin-1-yl)sulfonyl)phenyl)isoindoline-1,3-dione], the IC50 in assay [1] turned out to be 75.2 ± 23.8 µM; in assay [2], 8.05 ± 0.54 µM.

With `O=C1c2ccccc2C(=O)N1c1ccc(S(=O)(=O)N2CCOCC2)cc1` [Compound 11, 2-(4-(Morpholinosulfonyl)phenyl)isoindoline-1,3-dione], the IC50 in assay [1] was 56.7 ± 3.26 µM; in assay [2] it was 7.95 ± 0.22 µM.

For `COc1ccc(NS(=O)(=O)c2ccc(N3C(=O)c4ccccc4C3=O)cc2)cc1` [Compound 5, 4-(1,3-Dioxoisoindolin-2-yl)-N-(4-methoxyphenyl)benzenesulfonamide], the IC50 amounted to 87.2 ± 13.2 µM in assay [1] and 8.52 ± 0.18 µM in assay [2].

As to `CCN(CC)S(=O)(=O)c1ccc(N2C(=O)c3ccccc3C2=O)cc1` [Compound 7, 4-(1,3-Dioxoisoindolin-2-yl)-N,N-diethylbenzenesulfonamide], the figures for the IC50 in assay [1] and in assay [2] were more than 100 µM and 1.35 ± 0.08 µM, respectively.

Regarding `O=C1c2ccccc2C(=O)N1c1ccc(S(=O)(=O)Nc2ccc(Cl)cc2)cc1` [Compound 6, 4-(1,3-Dioxoisoindolin-2-yl)-N-(4-chlorophenyl)benzenesulfonamide], the IC50 was found to be 78.1 ± 5.39 µM in assay [1] and 8.21 ± 0.14 µM in assay [2].

On to `Cc1ccccc1NS(=O)(=O)c1ccc(N2C(=O)c3ccccc3C2=O)cc1` [Compound 1, 4-(1,3-Dioxoisoindolin-2-yl)-N-(o-tolyl)benzenesulfonamide], for which the IC50 came to 74.4 ± 2.34 µM in assay [1] and 6.84 ± 0.17 µM in assay [2].

Consider `O=C1c2ccccc2C(=O)N1c1ccc(S(=O)(=O)N2CCCC2)cc1` [Compound 8, 2-(4-(Pyrrolidin-1-ylsulfonyl)phenyl)isoindoline-1,3-dione], for which the IC50 in assay [1] and in assay [2] was more than 100 µM in each case.

As to `Cc1ccc(NS(=O)(=O)c2ccc(N3C(=O)c4ccccc4C3=O)cc2)cc1` [Compound 4, 4-(1,3-Dioxoisoindolin-2-yl)-N-(p-tolyl)benzenesulfonamide], the IC50 in assay [1] worked out at 85 ± 13.7 µM; in assay [2], 8.61 ± 0.18 µM.

Take `COc1ccccc1NS(=O)(=O)c1ccc(N2C(=O)c3ccccc3C2=O)cc1` [Compound 2, 4-(1,3-Dioxoisoindolin-2-yl)-N-(2-methoxyphenyl)benzenesulfonamide]: the half-maximal inhibitory concentration (IC50) was 44.2 ± 13.4 µM in assay [1] and 6.79 ± 0.41 µM in assay [2].

Consider `CC(C)c1ccccc1NS(=O)(=O)c1ccc(N2C(=O)c3ccccc3C2=O)cc1` [Compound 3, 4-(1,3-Dioxoisoindolin-2-yl)-N-(2-isopropylphenyl)benzenesulfonamide], for which the IC50 in assay [1] came to 13.4 ± 0.62 µM; in assay [2], 8.19 ± 0.13 µM.

Consider `O=C1c2ccccc2C(=O)N1c1ccc(S(=O)(=O)N2CCCCC2)cc1` [Compound 9, 2-(4-(Piperidin-1-ylsulfonyl)phenyl)isoindoline-1,3-dione], for which the figures for the IC50 in assay [1] and in assay [2] were more than 100 µM and 10.4 ± 0.61 µM, respectively.
